According to paper PMC11672637, “7-O-Carboxylic Acid-Substituted 3-O-Alkyl Difluoroquercetin; An Aztreonam-Potentiating Agent Against Carbapenemase-Producing Pseudomonas aeruginosa Through Simultaneous Inhibition of Metallo-β-Lactamase and Efflux Pump” (Antibiotics, 2024):
In brackets after ≈: the same amount, converted by molar mass. Like-named read-outs stand apart in the source and are kept apart here.

What was measured:
PA-009, blaGES = assay: MIC / checkerboard with ATM; assay type: cell-based, P. aeruginosa; conditions: Pseudomonas aeruginosa, read-out: MIC of ATM with 5, PA-009
[1] = test system: ATM-Susceptible CPPA (n = 11); assay: MIC distribution over clinical isolates; assay type: cell-based, P. aeruginosa; conditions: Pseudomonas aeruginosa
In vivo toxicity = conditions: 6-week-old C57BL/6J female mouse
PA-016, blaIMP = assay: MIC / checkerboard with ATM; assay type: cell-based, P. aeruginosa; conditions: for MIC: Pseudomonas aeruginosa, read-out: MIC of ATM with 5, PA-016
PA-030, blaIMP = assay: MIC / checkerboard with ATM; assay type: cell-based, P. aeruginosa; conditions: for MIC: Pseudomonas aeruginosa, read-out: MIC of ATM with 5, PA-030
[2] = test system: NDM-1-Producing P. aeruginosa (PA-017, blaNDM); assay: MIC / checkerboard with ATM; assay type: cell-based; conditions: for MIC: Pseudomonas aeruginosa
PA-032, blaIMP = assay: MIC / checkerboard with ATM; assay type: cell-based, P. aeruginosa; conditions: for MIC: Pseudomonas aeruginosa, read-out: MIC of ATM with 5, PA-032
PA-026, blaNDM = assay: MIC / checkerboard with ATM; assay type: cell-based, P. aeruginosa; conditions: for MIC: Pseudomonas aeruginosa, read-out: MIC of ATM with 5, PA-026

`CC(C)(C)CCOc1c(-c2ccc(F)c(F)c2)oc2cc(OCC(=O)O)cc(O)c2c1=O` [Compound 5, 2-((2-(3,4-Difluorophenyl)-3-(3,3-dimethylbutoxy)-5-hydroxy-4-oxo-4H-chromen-7-yl)oxy)acetic Acid] showed an MIC (PA-009, blaGES; 5 at 4 mg/L) of 16 µg/mL, an MIC (PA-009, blaGES; 5 at 8 mg/L) of 8 µg/mL and an MIC (PA-009, blaGES; 5 at 16 mg/L) of 8 µg/mL. The MIC (PA-009, blaGES; 5 at 32 mg/L) was 4 µg/mL, the MIC (PA-009, blaGES; 5 at 64 mg/L) was 4 µg/mL and the MIC50 ([1]; read-out: MIC50 of ATM, 5 at 1 mg/L) was 4 µg/mL (≈ 8.92 µM). For the same compound, the MIC50 ([1]; read-out: MIC50 of ATM, 5 at 2 mg/L) was 2 µg/mL (≈ 4.46 µM), the MIC50 ([1]; read-out: MIC50 of ATM, 5 at 4 mg/L) was 2 µg/mL (≈ 4.46 µM) and the MIC50 ([1]; read-out: MIC50 of ATM, 5 at 8 mg/L) was 2 µg/mL (≈ 4.46 µM). The MIC50 ([1]; read-out: MIC50 of ATM, 5 at 16 mg/L) was 1 µg/mL (≈ 2.23 µM), the MIC50 ([1]; read-out: MIC50 of ATM, 5 at 32 mg/L) was 1 µg/mL (≈ 2.23 µM) and the MIC50 ([1]; read-out: MIC50 of ATM, 5 at 64 mg/L) was 1 µg/mL (≈ 2.23 µM). The MIC90 ([1]; read-out: MIC90 of ATM, 5 at 1 mg/L) was 8 µg/mL (≈ 17.8 µM), the MIC90 ([1]; read-out: MIC90 of ATM, 5 at 2 mg/L) was 4 µg/mL (≈ 8.92 µM) and the MIC90 ([1]; read-out: MIC90 of ATM, 5 at 4 mg/L) was 4 µg/mL (≈ 8.92 µM). For the same compound, the MIC90 ([1]; read-out: MIC90 of ATM, 5 at 8 mg/L) was 2 µg/mL (≈ 4.46 µM), the MIC90 ([1]; read-out: MIC90 of ATM, 5 at 16 mg/L) was 2 µg/mL (≈ 4.46 µM) and the MIC90 ([1]; read-out: MIC90 of ATM, 5 at 32 mg/L) was 2 µg/mL (≈ 4.46 µM). For the same compound, the MIC90 ([1]; read-out: MIC90 of ATM, 5 at 64 mg/L) was 2 µg/mL (≈ 4.46 µM), the “Dose up to which no toxicity was shown” value (In vivo toxicity) was ≥ 40 mg/kg and the “Activity (FICI class)” value (PA-016, blaIMP; PA-016) was “S (S (Synergy, FICI ≤ 0.5))”. The “Concentrations of ATM and 5 at lowest FICI (ATM/5)” value (“Concentrations” for short) (PA-016, blaIMP; PA-016) was 8/8, the “Lowest FICI (ATM/5)” value (PA-016, blaIMP; PA-016) was 0.27 and the “Minimum concentration of 5 to make sensitive to ATM” value (“Minimum concentration” for short) (PA-016, blaIMP; PA-016) was 8 mg/L. For the same compound, the “Susceptibility to ATM” value (PA-016, blaIMP; PA-016, ATM/5) was “S (S (sensitive, MIC ≤ 8 mg/L))”, the “FD (fold decrease in MIC of ATM with 5)” value (PA-016, blaIMP; PA-016, lowest-FICI combination) was 4 and the MIC (PA-016, blaIMP; 5 at 1 mg/L) was 32 µg/mL. The MIC (PA-016, blaIMP; 5 at 2 mg/L) was 16 µg/mL, the MIC (PA-016, blaIMP; 5 at 4 mg/L) was 16 µg/mL and the MIC (PA-016, blaIMP; 5 at 8 mg/L) was 8 µg/mL. The MIC (PA-016, blaIMP; 5 at 16 mg/L) was 8 µg/mL, the MIC (PA-016, blaIMP; 5 at 32 mg/L) was 4 µg/mL and the MIC (PA-016, blaIMP; 5 at 64 mg/L) was 4 µg/mL. The “Activity (FICI class)” value (PA-030, blaIMP; PA-030) was “S (S (Synergy, FICI ≤ 0.5))”, the “Concentrations” value (PA-030, blaIMP; PA-030) was 16/4 and the “Lowest FICI (ATM/5)” value (PA-030, blaIMP; PA-030) was 0.26. The “Minimum concentration” value (PA-030, blaIMP; PA-030) was 16 mg/L, the “Susceptibility to ATM” value (PA-030, blaIMP; PA-030, ATM/5) was “S (S (sensitive, MIC ≤ 8 mg/L))” and the “FD (fold decrease in MIC of ATM with 5)” value (PA-030, blaIMP; PA-030, lowest-FICI combination) was 4. It also gave an MIC (PA-030, blaIMP; 5 at 1 mg/L) of 32 µg/mL, an MIC (PA-030, blaIMP; 5 at 2 mg/L) of 32 µg/mL and an MIC (PA-030, blaIMP; 5 at 4 mg/L) of 16 µg/mL. The MIC (PA-030, blaIMP; 5 at 8 mg/L) was 16 µg/mL, the MIC (PA-030, blaIMP; 5 at 16 mg/L) was 8 µg/mL and the MIC (PA-030, blaIMP; 5 at 32 mg/L) was 8 µg/mL. The MIC (PA-030, blaIMP; 5 at 64 mg/L) was 4 µg/mL, the “Activity (FICI class)” value ([2]; PA-017) was “S (S (Synergy, FICI ≤ 0.5))” and the “Concentrations” value ([2]; PA-017) was 4/4. The “Lowest FICI (ATM/5)” value ([2]; PA-017) was 0.26, the “Minimum concentration” value ([2]; PA-017) was 4 mg/L and the “Susceptibility to ATM” value ([2]; PA-017, ATM/5) was “S (S (sensitive, MIC ≤ 8 mg/L))”. The “FD (fold decrease in MIC of ATM with 5)” value ([2]; PA-017, lowest-FICI combination) was 4, the MIC ([2]; PA-017, compound alone, read-out: MIC, Cmpd) was > 256 µg/mL and the MIC ([2]; read-out: MIC of ATM with 5, PA-017, 5 at 1 mg/L) was 8 µg/mL. The MIC ([2]; read-out: MIC of ATM with 5, PA-017, 5 at 2 mg/L) was 8 µg/mL, the MIC ([2]; read-out: MIC of ATM with 5, PA-017, 5 at 4 mg/L) was 4 µg/mL and the MIC ([2]; read-out: MIC of ATM with 5, PA-017, 5 at 8 mg/L) was 4 µg/mL. For the same compound, the MIC ([2]; read-out: MIC of ATM with 5, PA-017, 5 at 16 mg/L) was 2 µg/mL, the MIC ([2]; read-out: MIC of ATM with 5, PA-017, 5 at 32 mg/L) was 2 µg/mL and the MIC ([2]; read-out: MIC of ATM with 5, PA-017, 5 at 64 mg/L) was 1 µg/mL. The “Activity (FICI class)” value (PA-032, blaIMP; PA-032) was “S (S (Synergy, FICI ≤ 0.5))”, the “Concentrations” value (PA-032, blaIMP; PA-032) was 2/8 and the “Susceptibility to ATM” value (PA-032, blaIMP; PA-032, ATM/5) was “S (S (sensitive, MIC ≤ 8 mg/L))”. The “FD (fold decrease in MIC of ATM with 5)” value (PA-032, blaIMP; PA-032, lowest-FICI combination) was 4, the MIC (PA-032, blaIMP; 5 at 1 mg/L) was 4 µg/mL and the MIC (PA-032, blaIMP; 5 at 2 mg/L) was 4 µg/mL. For the same compound, the MIC (PA-032, blaIMP; 5 at 4 mg/L) was 4 µg/mL, the MIC (PA-032, blaIMP; 5 at 8 mg/L) was 2 µg/mL and the MIC (PA-032, blaIMP; 5 at 16 mg/L) was 1 µg/mL. The MIC (PA-032, blaIMP; 5 at 32 mg/L) was 1 µg/mL, the MIC (PA-032, blaIMP; 5 at 64 mg/L) was 1 µg/mL and the “Activity (FICI class)” value (PA-026, blaNDM; PA-026) was “S (S (Synergy, FICI ≤ 0.5))”. For the same compound, the “Concentrations” value (PA-026, blaNDM; PA-026) was 2/4, the “Lowest FICI (ATM/5)” value (PA-026, blaNDM; PA-026) was 0.26 and the “Susceptibility to ATM” value (PA-026, blaNDM; PA-026, ATM/5) was “S (S (sensitive, MIC ≤ 8 mg/L))”. The “FD (fold decrease in MIC of ATM with 5)” value (PA-026, blaNDM; PA-026, lowest-FICI combination) was 4, the MIC (PA-026, blaNDM; 5 at 1 mg/L) was 4 µg/mL and the MIC (PA-026, blaNDM; 5 at 2 mg/L) was 4 µg/mL. The MIC (PA-026, blaNDM; 5 at 4 mg/L) was 2 µg/mL, the MIC (PA-026, blaNDM; 5 at 8 mg/L) was 2 µg/mL and the MIC (PA-026, blaNDM; 5 at 16 mg/L) was 1 µg/mL. It also gave an MIC (PA-026, blaNDM; 5 at 32 mg/L) of 1 µg/mL and an MIC (PA-026, blaNDM; 5 at 64 mg/L) of 1 µg/mL.
